Source: ChEMBL document CHEMBL4265965, “Dichloroacetophenones targeting at pyruvate dehydrogenase kinase 1 with improved selectivity and antiproliferative activity: Synthesis and structure-activity relationships” (Bioorg Med Chem Lett, 2018)
Activity calls are given as the source filed them. No cut-off for these calls is given here.

Columns and labels:
NCI-H1650 [1] = assay: Antiproliferative activity against human NCI-H1650 cells assessed as inhibition of cell proliferation at 12 uM after 72 hrs by MTT assay relative to control; format: functional; conditions: for inhibition at 12 µM: NCI-H1650, 72 h
A549 [2] = assay: Antiproliferative activity against human A549 cells assessed as inhibition of cell proliferation at 6 uM after 72 hrs by MTT assay relative to control; format: functional; conditions: for inhibition at 6 µM: A549, 72 h
Sus scrofa = species on record: Sus scrofa; assay: Inhibition of porcine PDK1 assessed as activation of pyruvate dehydrogenase complex at 1 uM measured after 3 mins
NCI-H1650 [3] = assay: Antiproliferative activity against human NCI-H1650 cells assessed as inhibition of cell proliferation at 6 uM after 72 hrs by MTT assay relative to control; format: functional; conditions: for inhibition at 6 µM: NCI-H1650, 72 h
NCI-H1975 [4] = assay: Antiproliferative activity against human NCI-H1975 cells assessed as inhibition of cell proliferation at 6 uM after 72 hrs by MTT assay relative to control; format: functional; conditions: for inhibition at 6 µM: NCI-H1975, 72 h
A549 [5] = assay: Antiproliferative activity against human A549 cells assessed as inhibition of cell proliferation at 2 uM after 72 hrs by MTT assay relative to control; format: functional; conditions: for inhibition at 2 µM: A549, 72 h
NCI-H1975 [6] = assay: Antiproliferative activity against human NCI-H1975 cells assessed as inhibition of cell proliferation at 12 uM after 72 hrs by MTT assay relative to control; format: functional; conditions: for inhibition at 12 µM: NCI-H1975, 72 h
NCI-H1650 [7] = assay: Antiproliferative activity against human NCI-H1650 cells assessed as inhibition of cell proliferation at 2 uM after 72 hrs by MTT assay relative to control; format: functional; conditions: for inhibition at 2 µM: NCI-H1650, 72 h
[8] = molecular target: [Pyruvate dehydrogenase (acetyl-transferring)] kinase isozyme 1, mitochondrial (Homo sapiens, UniProt Q15118); assay: Inhibition of recombinant human N-terminal His6/Sumo-tagged PDK1 (29 to 436 residues) expressed in Escherichia coli BL21 at 1 uM by kinase-glo luminescence assay relative to control
NCI-H1975 [9] = assay: Antiproliferative activity against human NCI-H1975 cells assessed as inhibition of cell proliferation at 2 uM after 72 hrs by MTT assay relative to control; format: functional; conditions: for inhibition at 2 µM: NCI-H1975, 72 h
A549 [10] = assay: Antiproliferative activity against human A549 cells assessed as inhibition of cell proliferation at 12 uM after 72 hrs by MTT assay relative to control; format: functional; conditions: for inhibition at 12 µM: A549, 72 h

SMILES | inhibition at 12 µM (NCI-H1650 [1]) [%] | inhibition at 6 µM (A549 [2]) [%] | inhibition (Sus scrofa) | inhibition at 6 µM (NCI-H1650 [3]) [%] | inhibition at 6 µM (NCI-H1975 [4]) [%] | inhibition at 2 µM (A549 [5]) [%] | inhibition at 12 µM (NCI-H1975 [6]) [%] | inhibition at 2 µM (NCI-H1650 [7]) [%] | inhibition [8] | inhibition at 2 µM (NCI-H1975 [9]) [%] | inhibition at 12 µM (A549 [10]) [%] | inhibition (A549 [5]) | inhibition (NCI-H1650 [7]) | inhibition (NCI-H1975 [9]) | inhibition (NCI-H1650 [1]) | inhibition (A549 [2]) | inhibition (NCI-H1650 [3]) | inhibition (NCI-H1975 [4]) | inhibition (NCI-H1975 [6]) | inhibition (A549 [10])
CCCCCCOc1ccc(C(=O)C(Cl)Cl)cc1[N+](=O)[O-] | 99.7 | 33.4 | Active | 53.1 | 51.7 | 1.2 | 98.3 | 3.6 | Active | 5.7 | 83.1 | – | – | – | – | – | – | – | – | –
O=C(c1ccc(OCCCCBr)c([N+](=O)[O-])c1)C(Cl)Cl | 66.7 | 33.4 | Active | 38.8 | 54.7 | 5.7 | 86.7 | 21.8 | Active | 15 | 72.9 | – | – | – | – | – | – | – | – | –
O=C(c1ccccn1)C(Cl)Cl | 90.5 | 15.3 | 10.2% | 39.6 | 73.1 | 3.3 | 98.5 | 14.8 | inactive | 15.9 | 31.5 | – | – | – | – | – | – | – | – | –
Cc1ccccc1NC(=O)C(Cl)Cl | 15.4 | 9.9 | inactive | 14.5 | 19.5 | – | 22.9 | – | inactive | – | 13.2 | inactive | inactive | inactive | – | – | – | – | – | –
O=C(c1cccnc1)C(Cl)(Cl)Cl | – | – | inactive | – | – | – | – | – | inactive | – | – | inactive | inactive | inactive | inactive | inactive | inactive | inactive | inactive | inactive
CCOc1ccc(C(=O)C(Cl)Cl)cc1[N+](=O)[O-] | 99.3 | 88 | Active | 88 | 94.1 | 37.8 | 98.2 | 57.3 | Active | 62.3 | 99 | – | – | – | – | – | – | – | – | –
O=C(c1ccc(OCc2ccccc2)c([N+](=O)[O-])c1)C(Cl)Cl | 67.3 | 87.9 | Active | 29.9 | 98.6 | 29.9 | 99 | – | Active | 58.4 | 99.3 | – | inactive | – | – | – | – | – | – | –
O=C(c1ccc(OCCCCCBr)c([N+](=O)[O-])c1)C(Cl)Cl | 78.6 | 29.4 | Active | 39.7 | 49.8 | 6.9 | 99.7 | – | Active | 6.9 | 69.7 | – | inactive | – | – | – | – | – | – | –
O=C(c1cccnc1)C(Cl)Cl | 56.5 | – | inactive | 29.1 | 9.3 | – | 52 | – | inactive | – | – | inactive | inactive | inactive | – | inactive | – | – | – | inactive
O=C(CCl)c1cccnc1 | – | – | inactive | – | – | – | – | – | inactive | – | – | inactive | inactive | inactive | inactive | inactive | inactive | inactive | inactive | inactive
